{
  "source": "patent US20230372335A1",
  "about": "“TREATMENT OF COGNITIVE IMPAIRMENT WITH A CNS-PENETRANT sGC STIMULATOR” (Cyclerion Therapeutics, Inc., priority 2020, published 2023)",
  "key": {"[1]": {"test_system": "healthy elderly participants", "test": "Resting-state EEG power spectra, healthy elderly study NCT04240158", "format": "in vivo, human", "description": "Resting-state EEG recordings with open and closed eyes for 5 min in each eye state were performed. Each recording employed alternating periods with eyes open and closed with a duration of 64-seconds for each period. Participants faced a featureless wall and were instructed not to stare, not to move their head and eyes, and to suppress eye blinks.\nAn EEG cap with electrodes at the Fz, Cz, Pz, and Oz positions (referring to frontal, central, parietal, and occipital regions at the midline, respectively) was used to record signals. Analyses of EEG-power spectra signals were carried out at the following frequency bands: • Delta-1-4 Hz (typically associated with sleep), Theta-4-7.5 Hz (associated with waking/falling asleep, some association with cognition), Alpha-8-12 Hz (associated with passive wakefulness, and with cognitive processing), Beta-12-25 Hz (associated with alertness and concentration) and Gamma-25-45 Hz (associated with higher cognitive function).\n(§1) This single-center double-blind, randomized, placebo-controlled, two-way, cross-over study evaluated a single dose level of IW-6463 compared to placebo. Subjects (male and female) were enrolled into 2 pre-defined, staggered cohorts (Cohort 1 and Cohort 2). The dose selected for both cohorts was the same but the start of enrollment within each cohort was different. This was based upon the availability of preliminary data from the previously started Phase 1 study NCT03856827 in healthy subjects and the emerging safety profile for that study from which a potential different second dose was being considered, but finally was not selected.\n(§2) One dosage regimen was studied in this clinical trial. For subjects receiving IW-6463 during the given dosing period, IW-6463 tablets were administered orally at a 15-mg total once-daily dose for. For subjects receiving placebo during the given dosing period, placebo tablets to match IW-6463 tablets were used. For Cohort 1, the 15 mg total oral daily dose was selected based on emerging data from the Phase 1 study NCT03856827, pre-clinical qEEG results, as well as multispecies PK parameters. For Cohort 2, in addition to the those data. the emerging data from Cohort 1 of this study supported selection of the 15 mg total oral daily dose."}, "[2]": {"test_system": "healthy elderly participants", "test": "N200 (MMN) auditory event-related potential by EEG, NCT04240158", "format": "in vivo, human", "details": "for ERP N200 amplitude: vs placebo or pre-treatment (FIG. 3); for N200 latency response vs age: subjects older than 70 vs 65-69 years old (FIG. 4, FIG. 8)", "description": "In P300 and N200 ERP studies, participants were seated wearing the EEG cap and headphones and were instructed to sit still and relax. During the task, participants were presented with auditory tones. Participants were instructed to pay attention to the tones and press a response-button when they heard an infrequent/deviant tone. A total of 500 tones were presented over […], of which 400 were presented as frequent stimuli and 100 as deviant/infrequent stimuli. […] The first 5 trials were frequent tones and there were at least 2 frequent tones between 2 deviant/infrequent tones. The frequent and infrequent tones were 150 ms tones of 500 Hz and 1000 Hz at a sound pressure level of 75 dB, respectively. All tones has a 5 ms rise and fall time. Tones were presented at a fixed rate of 1 Hz.\nas §1, §2"}, "[3]": {"test_system": "healthy elderly participants", "test": "Saccadic eye movements (SEM), NeuroCart, NCT04240158", "format": "in vivo, human", "details": "15 mg oral once daily", "description": "In this trial, SEMs were recorded at different times. Recording and analysis of SEMs were conducted with a microcomputer-based system for sampling and analysis of eye movements. The program for signal collection and the AD-converter was from Cambridge Electronic Design (CED Ltd., Cambridge, UK), the amplification by Grass (Grass-Telefactor, An Astro-Med, Inc. Product Group, Braintree, MA, USA) and the sampling and analysis scripts were developed at the CHDR (Leiden, the Netherlands). Disposable silver-silver chloride electrodes (Ambu Blue Sensor N) were applied on the forehead and beside the lateral canthi of both eyes of the participant for registration of the electro-oculographic signals. Skin resistance was reduced to less than 5 kOhm before measurements. […] SEMs were recorded for stimulus amplitudes of approximately 15 degrees to either side. Fifteen saccades were recorded with interstimulus intervals varying randomly between 3 and 6 seconds. […] Saccadic inaccuracy was calculated as the absolute value of the difference between the stimulus angle and the corresponding saccade, expressed as a percentage of the stimulus angle. SEMs were recorded in a training session at screening and during each Neurocart session (on day 1 and 15 of each treatment period at 2 hours pre-dose; on day 15 of each treatment period at 2, 3, and 6 hours post-dose). […]"}, "[4]": {"test": "CSF concentration of study drug (pharmacokinetics), NCT04240158", "format": "in vivo, human", "description": "as §2\nThe PK analysis population is defined as all participants who were randomized, received at least 1 dose of study drug, and have at least 1 measurable drug concentration of Compound 1 in collected samples."}, "[5]": {"test_system": "healthy elderly participants", "test": "Safety and tolerability (adverse events, blood pressure), NCT04240158", "format": "in vivo, human", "description": "Evaluations of systolic and diastolic blood pressure, pulse rate, respiratory rate, and temperature were performed throughout the study. Pulse and blood pressure were taken after the participant had rested quietly for 5 minutes in supine position. Automated oscillometric blood pressures and pulse rate were measured using a Dash 3000, Dash 4000, Dynamap 400, or Dynamap ProCare 400.\nas §2\nThe safety population is defined as all participants who were randomized and received at least 1 dose of study drug."}, "[6]": {"test_system": "CSF neuroinflammatory markers", "test": "Exploratory CSF biomarker analysis, NCT04240158", "format": "in vivo, human", "details": "after two weeks of treatment", "source_text": "Biomarkers measured in the CSF included: neurofilament light chain (NF-L) and cGMP. Other biomarkers measured in CSF include A2M, C3, TIMP1, PAI1 MCP1, PARC (CCL18), MMP3 and TNFR2."}, "[7]": {"test_system": "healthy subjects aged 18 to 62", "test": "EEG in Phase I clinical trial NCT03856827", "format": "in vivo, human", "source_text": "Nonclinical pharmacology and toxicology data supported conducting clinical studies of Compound Ito assess its safety, tolerability, pharmacokinetic (PK), and pharmacodynamics (PD) in humans. In a Phase I clinical trial (NCT03856827) changes were also observed in the brains of healthy subjects aged 18 to 62 by EEG."}, "[8]": {"test": "Plasma and CSF concentrations in NCT03856827 trial", "format": "in vivo, human", "details": "total oral daily dose of 10 mg"}, "[9]": {"test_system": "rats", "details": "cited from earlier work"}, "[10]": {"test_system": "rodents", "details": "pre-clinical models; cited from earlier work"}, "[11]": {"test_system": "pre-clinical models", "details": "cited from earlier work"}, "[12]": {"details": "healthy elderly, 15 mg oral once daily"}, "[13]": {"details": "healthy elderly, 15 mg oral once daily, Day 15"}, "[14]": {"details": "safety population, 15 mg oral once daily up to 15 days"}},
  "note": "Entries after “also recorded” stand apart in the source; their conditions may differ.",
  "data": [
    {"smiles": "Fc1ccccc1Cc1nc(-c2nc(C(F)(F)F)n[nH]2)cn2ccnc12", "note": "[Compound I]", "values": [
      {"measurement": "mean alpha band power relative to placebo", "setting": "[1]; Day 15 prior to last dose and 2, 3, 6 hours after last dose (FIG. 1)", "result": "increased mean alpha band power relative to placebo at all post-baseline timepoints"},
      {"measurement": "EEG (anterior) gamma power, change from baseline", "setting": "[1]; [12]", "result": 1, "unit": "dB"},
      {"measurement": "EEG (anterior) gamma power, increase from baseline", "setting": "[1]; [12]", "result": 45, "unit": "%"},
      {"measurement": "EEG (anterior) alpha power, change from baseline", "setting": "[1]; [13]", "result": 0.6, "unit": "dB"},
      {"measurement": "EEG (anterior) alpha power, increase from baseline", "setting": "[1]; [13]", "result": 17.5, "unit": "%"},
      {"measurement": "EEG (anterior) alpha power, treatment effect vs placebo", "setting": "[1]; [13]", "result": 13, "unit": "%"},
      {"measurement": "EEG (posterior) alpha power, change relative to baseline", "setting": "[1]; [13]", "result": 0.5, "unit": "dB"},
      {"measurement": "EEG (posterior) alpha power, increase from baseline", "setting": "[1]; [13]", "result": 13.7, "unit": "%"},
      {"measurement": "EEG (posterior) alpha power, treatment effect vs placebo", "setting": "[1]; [13]", "result": 17, "unit": "%"},
      {"measurement": "magnitude of improvement as age related change in N200 latency", "setting": "[2]; at older ages, after two weeks of treatment", "result": 10, "unit": "year"},
      {"measurement": "ERP N200 latency", "setting": "[2]; healthy elderly, 15 mg oral once daily, day 14, compared with placebo, p=0.02", "result": "significantly shorter"},
      {"measurement": "ERP N200 amplitude", "setting": "[2]; [12]", "result": "larger N200 negative amplitudes were observed with increasing age"},
      {"measurement": "ERP N200 amplitude", "setting": "[2]; healthy elderly, 15 mg oral once daily, listed as IW-6463", "result": "increased the amplitude"},
      {"measurement": "N200 latency response vs age", "setting": "[2]", "result": "smaller latency increases with increasing age; also recorded: greater in subjects older than 70 years old"},
      {"measurement": "N200 latency response vs age", "setting": "[2]; listed as IW-6463", "result": "greater in subjects older than 70 years old"},
      {"measurement": "LS mean difference in change from baseline for saccadic peak velocity vs placebo (95% CI)", "setting": "[3]; day 15", "result": "28.53 (−2.76, 59.83)"},
      {"measurement": "LS mean difference in change from baseline for saccadic latency (reaction time) vs placebo", "setting": "[3]; day 15, p=0.0216", "result": -6.58, "unit": "ms"},
      {"measurement": "concentration at 5 h", "setting": "[4]; human, CSF, 15 mg oral once daily, 5-hrs post last dose", "result": 77, "unit": "nM"},
      {"measurement": "CSF concentration relative to threshold expected for pharmacological activity in the brain", "setting": "[4]; threshold determined from preclinical models", "result": "2-3 times"},
      {"measurement": "headache (most commonly reported CNS event) rate", "setting": "[5]; IW-6463 vs placebo", "result": "rates were similar between treatments"},
      {"measurement": "AE reports of syncope, hypotension or other hemodynamic events", "setting": "[5]; [14]", "result": "no AE reports of syncope, hypotension or other events potentially related to changes in hemodynamics"},
      {"measurement": "blood pressure measurements below the normal range", "setting": "[5]; [14]", "result": "no blood pressure measurements reported below the normal range"},
      {"measurement": "CSF concentration of Alpha 2 macroglobulin (A2M) vs placebo", "setting": "[6]; nominal p 0.013 (FIG. 9)", "result": "potentially important reductions in the concentrations"},
      {"measurement": "CSF concentration of complement C3 (C3) vs placebo", "setting": "[6]; nominal p 0.039 (FIG. 9)", "result": "potentially important reductions in the concentrations"},
      {"measurement": "alpha power compared to placebo", "setting": "[7]; NCT03856827, day 14, across all dosage levels tested", "result": "Improvements in alpha power"},
      {"measurement": "ERP P300 amplitude", "setting": "[7]; healthy subjects aged 18 to 62, NCT03856827", "result": "increase in amplitude with increasing dose level"},
      {"measurement": "mean plasma and CSF concentrations vs threshold for pharmacological activity in the brain", "setting": "[8]", "result": "exceed the threshold"},
      {"measurement": "qEEG gamma power in combination with donepezil", "setting": "[9]; 10 mg/kg oral plus 1 mg/kg donepezil, 1-2 hours post-dose", "result": "further increased"},
      {"measurement": "qEEG gamma oscillations / gamma power compared to vehicle dosing", "setting": "[9]; oral suspension", "result": "increased gamma oscillations"},
      {"measurement": "qEEG gamma power", "setting": "[9]; orally at 10 mg/kg", "result": "increased gamma power"},
      {"measurement": "activation of brain regions by fMRI-BOLD", "setting": "[10]", "result": "activation of subcortical brain structures relevant to cognition"},
      {"measurement": "cerebral blood flow (CBF)", "setting": "[10]", "result": "increased cerebral blood flow"},
      {"measurement": "effects on memory and learning", "setting": "[11]", "result": "displaying effects on memory and learning"},
      {"measurement": "effects on neuroinflammation", "setting": "[11]", "result": "positive effects on neuroinflammation"},
      {"measurement": "neuroprotective properties", "setting": "[11]", "result": "displayed neuroprotective properties"}
    ]}
  ]
}
